Data from ChEMBL document CHEMBL2010754, “Unusual isomeric corniculatolides from mangrove, Aegiceras corniculatum” (J Nat Prod, 2012).
Active and inactive are the calls of the source.

Tests used:
Format in all cases: functional, organism-based
Aspergillus terreus = assay: Antifungal activity against Aspergillus terreus by agar diffusion method
Staphylococcus aureus = assay: Antibacterial activity against Staphylococcus aureus by agar diffusion method
Micrococcus luteus = assay: Antibacterial activity against Micrococcus luteus by agar diffusion method
Aspergillus niger = assay: Antifungal activity against Aspergillus niger by agar diffusion method
Klebsiella pneumoniae = assay: Antibacterial activity against Klebsiella pneumoniae by agar diffusion method
Bacillus subtilis = assay: Antibacterial activity against Bacillus subtilis by agar diffusion method
Escherichia coli = assay: Antibacterial activity against Escherichia coli by agar diffusion method
Aspergillus flavus = assay: Antifungal activity against Aspergillus flavus by agar diffusion method

Measured: Activity

COc1ccc2cc1Oc1ccc(cc1)CCC(=O)OCCC2
inactive: all assays above

COc1ccc2cc1Oc1ccc(cc1)CCCOC(=O)CC2
inactive: all assays above

O=C1CCc2ccc(O)c(c2)Oc2ccc(cc2)CCCO1
inactive: all assays above

COc1c(O)cc2cc1Oc1ccc(cc1)CCCOC(=O)CC2
inactive: all assays above

O=C1CCc2ccc(cc2)Oc2cc(ccc2O)CCCO1
inactive: all assays above
